The test system of assay [1] is maize plants. Kind of assay: Glyphosate spray test on maize plants at V3 growth stage. Format: in vivo. Here is the method:
TO plants grew well in the greenhouse and were fertile. A sample of TO plants was sprayed with a 1× dose of glyphosate at V3 growth stage using the spray booth setting of 20 gallons per acre. The 1× dose of glyphosate was prepared as follow: 2.55 ml Powermax in 300 ml water (active ingredient: glyphosate, N-(phosphonomethyl) glycine, in the form of its potassium salt at 48.7%). […] This TO plant was designated as hemizygous at the epsps locus.
A random sample of the F1 plants progeny of the E1 and E2 parental plants) was sprayed with 2.55 ml Powermax (glyphosate solution) in 300 ml water at the setting of 20 gallons per acre at the V3 stage of growth.

Assay [2] deals with F2 maize embryos. Kind of assay: Embryo rescue: germination of F2 embryos on rooting media containing glyphosate. Format: in vivo. As for the experimental part:
For embryo rescue of the F2 progeny seedlings from selfed F1 plants, ears were harvested 18 days after pollination and sterilized in 20:80 bleach/water mix. Embryos were excised and placed on rooting media (272V—4.3 g/L Murashige and Skoog basal salt mixture, 5.0 ml/L MS vitamins stock solution, 100 mg/L mio-inositol, 40 g/L sucrose, 6 g/L Bacto Agar) with or without glyphosate at 0.1 mM, 0.5 mM, 1 mM, 3 mM concentration. They were transferred to a light room at 26° C. and allowed to germinate for 7 days. Embryos containing the wild-type EPSPS alleles, hemizygous and homozygous for the epsps-TIPS allele germinated on media without glyphosate. […] The presence of the epsps-TIPS allele in the analyzed seedlings is indicated as “positive” or “negative”, while the wild-type EPSPS allele copy number is indicated in the columns to the right (Table 14)

Assay [3] has as its system artificial I-SceI recognition site in maize genome. The following applies: analyzed F1 plants, transgenic nuclease introduced by crossing and activated by gene excision; cited from earlier work.
The mark [4] stands for this setting: epsps-TIPS-containing F1 plants after spray.

As to `O=C(O)CNCP(=O)(O)O` [glyphosate, N-phosphonomethylglycine], the survival of plants entry in assay [1] (F1 plants containing the epsps-TIPS edited allele, 2.55 ml Powermax in 300 ml water, 20 gallons per acre, V3) is on record as “survived”. Further, the leaf tissue damage result is “severe leaf tissue damage” in assay [1] (F1 plants without the epsps-TIPS allele, 2.55 ml Powermax in 300 ml water, 20 gallons per acre, V3); “no leaf tissue damage” in assay [1] (T0 plants hemizygous for epsps-TIPS alleles, 1× dose, V3, 20 gallons per acre, seven days after application); “no damage to the leaf tissue” in assay [1] (one T0 plant hemizygous at the epsps locus, 1× dose, 14 days after application); “severely damaged” in assay [1] (other T0 plantlets, 1× dose, V3, 20 gallons per acre, seven days after application). In assay [1] (setting [4]), the growth of plants entry is listed as “slowed down”. In addition, in assay [1] (setting [4]), the “leaf symptoms over time” value is recorded as “bleached sectors of the leaf tissue on newly emerging leaves”. Besides, the tolerance of plants result in assay [1] (some epsps-TIPS edited maize T0 plants, 1× dose) is on record as “some level of tolerance”. For the same molecule, the green seedling production result was “only embryos containing the epsps-TIPS alleles produced green seedlings” in assay [2] (0.1 mM in rooting media, 7 days, 26° C., F2 embryos); “produced green seedlings” in assay [2] (embryos homozygous for the epsps-TIPS allele, 1.0 mM); “did not” in assay [2] (hemizygous embryos, 1.0 mM). Besides, in assay [2] (0.1 mM or any other concentration up to 3 mM in media), the “wild-type seedlings among germinating embryos” value is recorded as “No wild-type seedlings were detected”.

B1: I-SceI: wild type yeast I-SceI homing nuclease (protein, UniProt P03882 1-235, looked up)
Intron-encoded endonuclease …: MKNIKKNQVMNLGPNSKLLKEYKSQLIELNIEQFEAGIGLILGDAYIRSRDEGKTYCMQFEWKNKAYMDHVCLLYDQWVLSPPHKKERVNHLGNLVITWGAQTFKHQAFNKLANLFIVNNKKTIPNNLVENYLTPMSLAYWFMDDGGKWDYNKNSTNKSIVLNTQSFTFEEVEYLVKGLRNKFQLNCYVKINKNKPIIYIDSMSYLIFYNLIKPYLIPQMMYKLPNTISSETFLK
Turning to B1, in assay [3], the “plants with mutations of the recognition sequence” value is given as 1%.

(Values after patent US10676754B2, “Compositions and methods for producing plants resistant to glyphosate herbicide” (E I DU PONT DE NEMOURS AND COMPANY, priority 2014, dated 2020).)
